Assay results taken from patent US6204293A, “Inhibitors of protein isoprenyl transferases” (University of Pittsburgh, priority 1998, dated 2001).
Structures can show the parent of a compound that is named as a salt.

molecular target: T1, Rat brain protein farnesyltransferase (Rattus norvegicus, UniProt Q02293+Q04631); test: % inhibition of farnesylation, scintillation proximity assay with biotin-K Ras B fragment; type: biochemical; settings: Table 1; 1 × 10^-5 M
T1 construct: Rat brain protein farnesyltransferase activity is measured; from tissue; host or cells: rat brain
Procedure, shortened: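 Rat brain enzyme, purified through three steps, in a scintillation proximity assay kit with biotin-K Ras B fragment substrate at 0.1 mM final. Value is % inhibition of farnesylation.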

T1 sequence (Q02293 whole entry, the tested form may be a part, one chain of several): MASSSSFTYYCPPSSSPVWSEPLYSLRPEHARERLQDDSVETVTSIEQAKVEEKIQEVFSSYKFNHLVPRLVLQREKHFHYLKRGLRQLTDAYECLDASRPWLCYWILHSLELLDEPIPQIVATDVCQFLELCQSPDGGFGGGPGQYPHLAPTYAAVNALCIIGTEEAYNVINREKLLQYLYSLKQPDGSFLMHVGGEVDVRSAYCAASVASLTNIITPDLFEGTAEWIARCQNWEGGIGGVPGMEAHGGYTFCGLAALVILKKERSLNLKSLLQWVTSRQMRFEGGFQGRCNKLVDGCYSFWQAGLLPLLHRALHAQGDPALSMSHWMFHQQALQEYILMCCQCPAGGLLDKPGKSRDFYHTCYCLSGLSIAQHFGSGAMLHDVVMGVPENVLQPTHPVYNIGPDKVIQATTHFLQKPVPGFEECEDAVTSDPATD

| % inhibition at 1 × 10^-5 M | Compound |
| --- | --- |
| 78% | CSCC[C@H](NC(=O)c1ccc(CNc2ccc(F)cc2)cc1-c1ccccc1)C(=O)O [Example 687] |
| 58% | CSCC[C@H](NC(=O)c1ccc(NC(=O)Cc2ccccc2[N+](=O)[O-])cc1-c1ccccc1)C(=O)O [Example 757] |
| > 50% | CSCC[C@H](NC(=O)c1ccc(NC(=O)[C@@H]2C[C@@H](O)CN2)cc1-c1ccccc1)C(=O)O [Example 952] |
| 56% | CSCC[C@H](NC(=O)c1ccc(CNC(CO)Cc2ccccc2)cc1-c1ccccc1)C(=O)O (some centres unmarked) [Example 714] |
| 40% | CSCC[C@H](NC(=O)c1ccc(CNCCCCc2ccccc2)cc1-c1ccccc1)C(=O)O [Example 718] |

The remaining lines, values behind:

| Compound | % inhibition at 1 × 10^-5 M |
| --- | --- |
| COc1cc2c(cc1OC)C(CNCc1ccc(C(=O)N[C@@H](CCSC)C(=O)O)c(-c3ccccc3)c1)=CC(C1CCCCC1)C2 (some centres unmarked) [Example 659] | 55% |
| CSCC[C@H](NC(=O)c1ccc(CNCCN2CCCCC2)cc1-c1ccccc1)C(=O)O [Example 366] | 83% |
| CSCC[C@H](NC(=O)c1ccc(CNCCCN2CCOCC2)cc1-c1ccccc1)C(=O)O [Example 377] | 71% |

same assay, conditions: Table 2; 1 × 10^-6 M

| % inhibition at 1 × 10^-6 M | Compound |
| --- | --- |
| 41% | CSCC[C@H](NC(=O)c1ccc(S(=O)(=O)NC2CCN(Cc3ccccc3)CC2)cc1-c1ccccc1C)C(=O)O [Example 773] |
| 45% | CSCC[C@H](NC(=O)c1ccc(CNc2ccc(CCO)cc2)cc1-c1ccccc1)C(=O)O [Example 694] |
| 90% | CSCC[C@H](NC(=O)c1ccc(CN2CCC[C@H]2COCc2ccccc2)cc1-c1ccccc1C)C(=O)O [Example 824] |

Continued, compound first:

| Compound | % inhibition at 1 × 10^-6 M |
| --- | --- |
| CSCC[C@H](NC(=O)c1ccc(CNCCC2CCCCC2)cc1-c1ccccc1C)C(=O)O.O=C(O)C(F)(F)F [Example 607] | 96% |
| CSCC[C@H](NC(=O)c1ccc(NC[C@@H]2CSCN2)cc1-c1ccccc1)C(=O)O.Cl [Example 166] | 97% |
| Cc1ccccc1-c1cc(CCc2ccc(Oc3ccccc3)cc2)ccc1C(=O)N[C@@H](CC[S+](C)[O-])C(=O)O (some centres unmarked) [Example 463] | 91% |
| CSCC[C@H](NC(=O)c1ccc(C=Cc2ccccc2Cc2ccccc2)cc1-c1ccccc1C)C(=O)[O-].[Li+] [Example 457] | 92% |
| CSCC[C@H](NC(=O)c1ccc(CN(C(C)C)C2(CC3CCCCC3)CCC2)cc1-c1ccccc1C)C(=O)O [Example 332] | 26% |
| CSCC[C@H](NC(=O)c1ccc(CN(CCc2ccccc2)Cc2ccccc2)cc1-c1ccccc1C)C(=O)O [Example 513] | 96% |
| CSCC[C@H](NC(=O)c1ccc(CN(C)CCc2ccccc2)cc1-c1ccccc1C)C(=O)O [Example 516] | 95% |
| CSCC[C@H](NC(=O)c1ccc(-c2ccc(-c3ccccc3)cc2)cc1-c1ccccc1C)C(=O)[O-].[Li+] [Example 788] | 44% |
| CSCC[C@H](NC(=O)c1ccc(CCc2cccc3ccccc23)cc1-c1ccccc1C)C(=O)[O-].[Li+] [Example 467] | 97% |
| CSCC[C@H](NC(=O)c1ccc(CCCc2ccc3ccccc3c2)cc1-c1ccccc1C)C(=O)[O-].[Li+] [Example 470] | 95% |
| CSCC[C@H](NC(=O)c1ccc(CN(Cc2ccccc2)Cc2ccco2)cc1-c1ccccc1C)C(=O)O [Example 504] | 90% |
| CSCC[C@H](NC(=O)c1ccc(CNCCSc2ccccc2)cc1-c1ccccc1)C(=O)O [Example 667] | 83% |

same assay, conditions: Table 3; 1 × 10^-7 M

| Compound | % inhibition at 1 × 10^-7 M |
| --- | --- |
| CSCC[C@H](NC(=O)c1ccc(CN[C@@H](CO)C2CCCCC2)cc1-c1ccccc1C)C(=O)O [Example 604] | 86% |
| CSCC[C@H](NC(=O)c1ccc(NC(=O)CN)cc1-c1ccccc1)C(=O)O [Example 748] | 56% |
| CCCC[C@H](CC1CCCCC1)NCc1ccc(C(=O)N[C@@H](CCSC)C(=O)O)c(-c2ccccc2C)c1 [Example 615] | 94% |

same assay, conditions: Table 4; 1 × 10^-8 M

| Compound | % inhibition at 1 × 10^-8 M |
| --- | --- |
| CSCC[C@H](NC(=O)c1ccc(CN(CCC2CCCCC2)C2CC2)cc1-c1ccccc1C)C(=O)O [Example 880] | 95% |
| CSCC[C@H](NC(=O)c1ccc(CN[C@H](CSc2ccccc2C)CC2CCCCC2)cc1-c1ccccc1C)C(=O)O [Example 767] | 97% |
| CSCC[C@H](NC(=O)c1ccc(CN(CCC2CCCCC2)S(=O)(=O)c2ccccc2)cc1-c1ccccc1C)C(=O)O [Example 612] | 96% |

same assay, conditions: read-out: % inhibition at 0.01 μM (**)

| Compound | inhibition at 0.01 µM |
| --- | --- |
| CSCC[C@H](NC(=O)c1ccc(COC(CCC2CCCCC2)c2ccns2)cc1-c1ccccc1C)C(=O)O (some centres unmarked) [Example 1223, N-[4-(1-(Isothiaz-5-yl)-3-cyclohexylpropan-1-yloxymethyl)-2-(2-methylphenyl)benzoyl]methionine lithium salt] | 91% |

same assay, conditions: read-out: % inhibition at 0.01 μM (**); Table 6; ** footnote 0.01 μM (title: 0.01 mM)

| Compound | inhibition at 0.01 µM |
| --- | --- |
| CCCCSC[C@H](CC1CCCCC1)OCc1ccc(C(=O)N[C@@H](CCSC)C(=O)O)c(-c2ccccc2C)c1 [Example 1312, N-[4-(1-Butylthio-3-cyclohexylprop-2-yloxymethyl)-2-(2-methylphenyl)benzoyl]methionine Lithium Salt] | 91% |

same assay, conditions: read-out: % inhibition at 0.1 μM (*)

| Compound | inhibition at 0.1 µM |
| --- | --- |
| CSCC[C@H](NC(=O)c1ccc(COC(CCC2CCCCC2)c2cccc(Cl)c2)cc1-c1ccccc1C)C(=O)O (some centres unmarked) [Example 1207, N-[4-(1-(3-chlorophenyl)-3-cyclohexylpropan-1-yloxymethyl)-2-(2-methylphenyl)benzoyl]methionine lithium salt] | 91% |

same assay, conditions: read-out: % inhibition at 0.1 μM (*); Table 6; * footnote 0.1 μM (title: 0.1 mM)

| Compound | inhibition at 0.1 µM |
| --- | --- |
| CSCC[C@H](NC(=O)c1ccc(CO[C@H](COCC2COC(C)(C)O2)CC2CCCCC2)cc1-c1ccccc1C)C(=O)O (some centres unmarked) [Example 1346, N-[4-(3-Cyclohexyl-1-(2,2-dimethyl-1,3-dioxolan-4-methanoxy)prop-2-yloxymethyl)-2-(2-methylphenyl)benzoyl]methionine, Lithium Salt] | 94% |
| CSCC[C@H](NC(=O)c1ccc(COCc2ccc(CO)cc2)cc1-c1ccccc1C)C(=O)O [Example 1045, N-[4-(4-hydroxymethylbenzyloxymethyl)-2-(2-methylphenyl)benzoyl]methionine,lithium salt] | 86% |
| CSCC[C@H](NC(=O)c1ccc(COCC2CCCN2C(=O)OCc2ccccc2)cc1-c1ccccc1C)C(=O)O (some centres unmarked) [Example 1128, lithium salt] | 86% |
| CSCC[C@H](NC(=O)c1ccc(COCc2ccccc2CO)cc1-c1ccccc1C)C(=O)O [Example 1043, N-[4-(2-hydroxymethylbenzyloxymethyl)-2-(2-methylphenyl)benzoyl]methionine,lithium salt] | 90% |

same assay, conditions: read-out: % inhibition at 1 × 10^-6 M; Table 2; 1 × 10^-6 M

| Compound | inhibition at 1 µM |
| --- | --- |
| CSCC[C@H](NC(=O)c1ccc(OCCCC2CCCCC2)cc1-c1ccccc1C)C(=O)O [Example 564, N-[4-(3-cyclohexylpropoxy)-2-(2-methylphenylbenzoyl]methionine, lithium salt] | 98% |
| CSCC[C@H](NC(=O)c1ccc(COC2CCN(Cc3ccccc3)C2)cc1-c1ccccc1C)C(=O)O (some centres unmarked) [Example 987, N-[4-(1-benzylpyrrolidin-3-oxymethyl)-2-(2-methylphenyl)benzoyl]methionine] | 93% |

same assay, conditions: read-out: % inhibition at 1 × 10^-7 M

| Compound | inhibition at 0.1 µM |
| --- | --- |
| CSCC[C@H](NC(=O)c1ccc(COCc2cnc(-c3ccc(Cl)cc3)o2)cc1-c1ccccc1C)C(=O)O [Example 894, N-[4-(2-(4-chlorophenyl)oxazol-5-ylmethoxymethyl)-2-(2-methylphenyl)benzoyl]methionine lithium salt] | 89% |
| CSCC[C@H](NC(=O)c1ccc(COCc2ccc(-c3ccccc3F)o2)cc1-c1ccccc1C)C(=O)O [Example 437, N-[4-(5-(2-fluorophenyl)furan-2-ylmethoxymethyl)-2-(2-methylphenyl)benzoyl]methionine lithium salt] | 89% |
| CSCC[C@H](NC(=O)c1ccc(COCc2ccc(-c3ccccc3C(F)(F)F)o2)cc1-c1ccccc1C)C(=O)O [Example 438, N-[4-(5-(2-trifluoromethylphenyl)furan-2-ylmethoxymethyl)-2-(2-methylphenyl)benzoyl]methionine lithium salt] | 90% |
| CSCC[C@H](NC(=O)c1ccc(COCc2ccc(-c3ccc(F)cc3)o2)cc1-c1ccc(F)cc1Cl)C(=O)O [Example 869, N-[4-(5-(4-fluorophenyl)furan-2-ylmethoxymethyl)-2-(2-chloro-4-fluorophenyl)benzoyl]methionine lithium salt] | 92% |

same assay, conditions: read-out: % inhibition at 1 × 10^-7 M; Table 3; 1 × 10^-7 M

| Compound | inhibition at 0.1 µM |
| --- | --- |
| CSCC[C@H](NC(=O)c1ccc(CSC2=NCCS2)cc1-c1ccccc1C)C(=O)O [Example 730] | 96% |
| CSCC[C@H](NC(=O)c1ccc(COCCCCc2ccccc2)cc1-c1ccccc1C)C(=O)O [Example 601] | 92% |

same assay, conditions: read-out: % inhibition at 1 × 10^-8 M

| Compound | inhibition at 0.01 µM |
| --- | --- |
| CSCC[C@H](NC(=O)c1ccc(COCc2cnc(-c3cccc(Cl)c3)s2)cc1-c1ccccc1C)C(=O)O [Example 899, N-[4-(2-(3-chlorophenyl)thiazol-5-ylmethoxymethyl)-2-(2-methylphenyl)benzoyl]methionine lithium salt] | 88% |

same assay, conditions: read-out: % inhibition at 1 × 10^-8 M; Table 4; 1 × 10^-8 M

| Compound | inhibition at 0.01 µM |
| --- | --- |
| CSCC[C@H](NC(=O)c1ccc(CO[C@H](CSC(C)(C)C)CC2CCCCC2)cc1-c1ccccc1C)C(=O)O [Example 883, N-[4-(3-Cyclohexyl-1-t-butylthiopropan-2-yl)oxymethyl-2-(2-methylphenyl)benzoyl]methionine lithium salt] | 91% |
| CSCC[C@H](NC(=O)c1ccc(COCc2ccc(-c3ccc(Cl)cc3)o2)cc1-c1ccccc1C)C(=O)NS(=O)(=O)c1ccccc1 [Example 819, N-[4-(5-(4-chlorophenyl)furan-2-ylmethoxymethyl)-2-(2-methylphenyl)benzoyl]methionine benzenesulfonimide] | 76% |
